Source: ChEMBL document CHEMBL1201862, “PubChem BioAssay data set” (2004)
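Step 1: Grow cells in 96-well plates. Step 2: Expose to compound for 48 hours at 5 concentrations. Step 3: Interpolate endpoints linearly; if unreached, use highest concentration. The concentration for 50% growth inhibition is given as GI50.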 Activity calls are given as the source filed them. Cut-off read from the data, not from the text of the source: active = GI50 up to about 1.1 µM and inactive = higher.

Experiments:
Test in all cases: inhibition of tumour cell growth, NCI panel, 48 h
HT-29 = system: HT-29
786-0 = system: 786-0
SNB-78 = system: SNB-78
ACHN = system: ACHN
NCI-H522 = system: NCI-H522
SK-MEL-28 = system: SK-MEL-28
IGROV-1 = system: IGROV-1
A498 = system: A498
RPMI-8226 = system: RPMI-8226
SK-MEL-2 = system: SK-MEL-2
NCI-H460 = system: NCI-H460
MOLT-4 = system: MOLT-4
HL-60 = system: HL-60
SNB-75 = system: SNB-75
HOP-62 = system: HOP-62

Measured: GI50

COc1cc2c(cc1OC)c1c(OC)c(OC)cc3c1c1c2sc(=S)n1CC3
inactive: HT-29 50.2 µM | 786-0 18.1 µM | SNB-78 > 100 µM | ACHN > 100 µM | NCI-H522 17.4 µM | SK-MEL-28 46.9 µM | IGROV-1 > 100 µM | A498 > 100 µM | RPMI-8226 32.1 µM | SK-MEL-2 > 100 µM | NCI-H460 42.7 µM | MOLT-4 30.7 µM | HL-60 26.9 µM | SNB-75 74.6 µM

COc1ccc(CNC2=C(NC(C)=O)C(=O)c3ccccc3C2=O)cc1
inactive: HT-29 29.4 µM | 786-0 24.4 µM | SNB-78 11.9 µM | ACHN 2.07 µM | NCI-H522 1.37 µM | SK-MEL-28 18.3 µM | IGROV-1 16.8 µM | SK-MEL-2 9.18 µM | NCI-H460 15.2 µM | MOLT-4 3.71 µM | HL-60 1.69 µM | SNB-75 12.8 µM | HOP-62 > 50 µM

CCC(=O)C12OC3OC(C)(C)OC3C1OC(C)(C)O2 (stereo unspecified)
inactive: HT-29 > 100 µM | 786-0 > 100 µM | SNB-78 > 100 µM | ACHN > 100 µM | NCI-H522 > 100 µM | SK-MEL-28 > 100 µM | IGROV-1 > 100 µM | A498 > 100 µM | SK-MEL-2 > 100 µM | NCI-H460 > 100 µM | MOLT-4 > 100 µM | HL-60 > 100 µM | SNB-75 > 100 µM | HOP-62 > 100 µM

CC(=O)Oc1cc2c(cc1OC(C)=O)C1(C)CCC2(C)c2cc(OC(C)=O)c(OC(C)=O)cc21
inactive: HT-29 4.75 µM | 786-0 15 µM | SNB-78 16 µM | ACHN 26.1 µM | NCI-H522 2.24 µM | SK-MEL-28 21.4 µM | IGROV-1 26.7 µM | RPMI-8226 3.52 µM | SK-MEL-2 16.7 µM | NCI-H460 20.8 µM | MOLT-4 8.2 µM | HL-60 4.13 µM | SNB-75 4.92 µM | HOP-62 21.6 µM

COc1ccc(/C=C2\CCC(C)(CN(C)C)C2=O)cc1OC (stereo unspecified)
inactive: HT-29 > 100 µM | 786-0 > 100 µM | SNB-78 > 100 µM | ACHN > 100 µM | NCI-H522 > 100 µM | SK-MEL-28 > 100 µM | IGROV-1 > 100 µM | A498 > 100 µM | RPMI-8226 > 100 µM | SK-MEL-2 > 100 µM | NCI-H460 > 100 µM | MOLT-4 > 100 µM | SNB-75 > 100 µM | HOP-62 > 100 µM

O=C1CCCC1NC(=O)C(F)(F)F (stereo unspecified)
inactive: HT-29 > 100 µM | 786-0 > 100 µM | SNB-78 > 100 µM | ACHN > 100 µM | NCI-H522 > 100 µM | SK-MEL-28 > 100 µM | IGROV-1 > 100 µM | A498 > 100 µM | SK-MEL-2 > 100 µM | NCI-H460 > 100 µM | MOLT-4 > 100 µM | HL-60 > 100 µM | SNB-75 > 100 µM | HOP-62 > 100 µM

C#CC1/C(=C\C(=O)OC)CCCC1O (stereo unspecified)
inactive: HT-29 > 100 µM | 786-0 > 100 µM | SNB-78 > 100 µM | ACHN > 100 µM | NCI-H522 > 100 µM | IGROV-1 > 100 µM | A498 > 100 µM | RPMI-8226 > 100 µM | SK-MEL-2 > 100 µM | NCI-H460 > 100 µM | MOLT-4 > 100 µM | HL-60 > 100 µM | SNB-75 > 100 µM | HOP-62 > 100 µM

N#CCN1CCOCCOCCN(CC#N)CCOCCOCC1
inactive: HT-29 > 100 µM | 786-0 > 100 µM | SNB-78 > 100 µM | ACHN > 100 µM | SK-MEL-28 > 100 µM | IGROV-1 > 100 µM | A498 > 100 µM | RPMI-8226 > 100 µM | NCI-H460 > 100 µM | MOLT-4 > 100 µM | HL-60 > 100 µM | SNB-75 > 100 µM | HOP-62 > 100 µM

OC(c1ccccc1)(c1ccccc1)c1cccnc1
inactive: HT-29 > 100 µM | 786-0 > 100 µM | SNB-78 > 100 µM | ACHN > 100 µM | SK-MEL-28 > 100 µM | IGROV-1 > 100 µM | A498 > 100 µM | RPMI-8226 > 100 µM | SK-MEL-2 > 100 µM | NCI-H460 > 100 µM | SNB-75 86.1 µM | HOP-62 > 100 µM

O=[N+]([O-])C(/C=N/Nc1ccccc1)/C=N/Nc1ccccc1
inactive: HT-29 > 100 µM | 786-0 > 100 µM | SNB-78 > 100 µM | ACHN > 100 µM | NCI-H522 > 100 µM | SK-MEL-28 > 100 µM | IGROV-1 > 100 µM | A498 > 100 µM | SK-MEL-2 > 100 µM | NCI-H460 > 100 µM | MOLT-4 > 100 µM | HL-60 > 100 µM | SNB-75 > 100 µM | HOP-62 > 100 µM

Cc1ccc(S(=O)OCc2c(C)c(C)c(COS(=O)c3ccc(C)cc3)c(C)c2C)cc1 (stereo unspecified)
inactive: HT-29 > 100 µM | 786-0 > 100 µM | SNB-78 31.6 µM | ACHN > 100 µM | NCI-H522 > 100 µM | SK-MEL-28 > 100 µM | IGROV-1 > 100 µM | A498 > 100 µM | RPMI-8226 > 100 µM | NCI-H460 > 100 µM | MOLT-4 > 100 µM | HL-60 > 100 µM | SNB-75 > 100 µM | HOP-62 > 100 µM

CNC(=O)CN(CC(=O)O)C(=O)NC
inactive: HT-29 > 100 µM | 786-0 > 100 µM | SNB-78 > 100 µM | ACHN > 100 µM | NCI-H522 > 100 µM | IGROV-1 > 100 µM | A498 > 100 µM | RPMI-8226 > 100 µM | SK-MEL-2 > 100 µM | MOLT-4 > 100 µM | HL-60 > 100 µM | SNB-75 > 100 µM | HOP-62 > 100 µM

C[P+](C)(CC(F)(F)F)c1ccccc1
inactive: HT-29 > 100 µM | 786-0 > 100 µM | SNB-78 > 100 µM | ACHN > 100 µM | NCI-H522 > 100 µM | IGROV-1 > 100 µM | A498 > 100 µM | RPMI-8226 > 100 µM | SK-MEL-2 > 100 µM | NCI-H460 > 100 µM | MOLT-4 > 100 µM | HL-60 > 100 µM | SNB-75 > 100 µM | HOP-62 > 100 µM

COc1ccc(C2C(Cl)C(=O)N2n2cnc3ccccc3c2=O)cc1OC (stereo unspecified)
inactive: HT-29 > 100 µM | 786-0 > 100 µM | SNB-78 > 100 µM | ACHN > 100 µM | NCI-H522 57.9 µM | SK-MEL-28 68.7 µM | IGROV-1 74.1 µM | RPMI-8226 81.1 µM | SK-MEL-2 > 100 µM | NCI-H460 81.1 µM | MOLT-4 82.4 µM | HL-60 57.7 µM | SNB-75 21.5 µM | HOP-62 > 100 µM
